Laboratory results from paper PMC9283524 (Nature Communications, 2022).
Values joined by “and” are separate entries in the source; they are usually repeats but may differ in a detail not shown here. Equal entries are not always repeated. Where two headings read alike, the source gives them in different places.

Columns and labels:
turkey β1-AR V230^5.61A = turkey β1-AR V230^5.61A (Meleagris gallopavo, UniProt P07700, V230A); type: cell-based; conditions: V2305.61A
Procedure: (§1) CHO cells (transfected with a control empty vector or wild-type or mutant turkey β1-AR) were plated onto six-well plates, and were pre-incubated with culture medium buffered with 0.5 mM IBMX for 30 min at 37 °C[20]. […] After culture medium removal, cells were treated with 0.1 M HCl for 10 minutes at room temperature. After centrifugation, the supernatant was used for cAMP quantification using the Direct Cyclic AMP Enzyme Immunoassay kit (Enzo Life Sciences). […] The cAMP assays were repeated three times, and the data are represented as mean ± SD of the three independent experiments. The analysis was done using the log(agonist) vs. response function of Prism 8 (GraphPad)[20].

wild-type turkey β1-AR [1] = target: T1, wild-type turkey β1-AR (Meleagris gallopavo, UniProt P07700); type: cell-based
Procedure: as §1

turkey β1-AR W117^3.28A = turkey β1-AR W117^3.28A (Meleagris gallopavo, UniProt P07700, W117A); assay: cell-based
Procedure: as §1

turkey β1-AR W330^7.40A = turkey β1-AR W330^7.40A (Meleagris gallopavo, UniProt P07700, W330A); assay: cell-based; conditions: for cAMP level: Fig 3 source data, W330A
Procedure: as §1

wild-type turkey β1-AR [2] = target: T1, wild-type turkey β1-AR; assay: cAMP assay, time course, transfected CHO cells; type: cell-based; conditions: for cAMP, time course: WT
Procedure: as §1

[3] = test system: ligand-bound nucleotide-free β1-AR–Gs complex; type: biochemical, turkey; conditions: ligand at ~EC90; 10 μM BODIPY FL GTPγS; 25 °C; mean ± SD
From the text: To investigate whether ligands with different efficacies have different effects on the stability of the intermediate state, we prepared the complex of ligand-bound β1-AR-Gs (nucleotide-free), and quantified the stability of the intermediate state complex (Fig. 7a). Fluorescently labeled BODIPY-GTPγS binding to the ligand-bound β1-AR–Gs (nucleotide-free) complex eventually leads to the dissociation of the complex to produce the fluorescently labeled product Gαs(BODIPY-GTPγS), which is detected by an increase in fluorescence (the β1-AR–Gαs(BODIPY-GTPγS)–Gβγ intermediate is very transient)[31],[35] […] The data were then fitted by nonlinear association analyses and half-life values (t1/2 = ln 2/k) were calculated based on the rate constant (Fig. 7b–e).
The reaction was initiated by adding 10 μM BODIPY™ FL GTPγS (Invitrogen). Relative fluorescence units (RFU) change was measured every 12 s for a total of 60 min at 25 °C. The BODIPY-GTPγS binding data were fitted to one phase exponential association curves using GraphPad Prism 8.

[4] = CHO, 5 min, read-out: Efficacy (% of max cAMP level)

turkey β1-AR W330^7.40A, sequence (P07700 whole entry W330A): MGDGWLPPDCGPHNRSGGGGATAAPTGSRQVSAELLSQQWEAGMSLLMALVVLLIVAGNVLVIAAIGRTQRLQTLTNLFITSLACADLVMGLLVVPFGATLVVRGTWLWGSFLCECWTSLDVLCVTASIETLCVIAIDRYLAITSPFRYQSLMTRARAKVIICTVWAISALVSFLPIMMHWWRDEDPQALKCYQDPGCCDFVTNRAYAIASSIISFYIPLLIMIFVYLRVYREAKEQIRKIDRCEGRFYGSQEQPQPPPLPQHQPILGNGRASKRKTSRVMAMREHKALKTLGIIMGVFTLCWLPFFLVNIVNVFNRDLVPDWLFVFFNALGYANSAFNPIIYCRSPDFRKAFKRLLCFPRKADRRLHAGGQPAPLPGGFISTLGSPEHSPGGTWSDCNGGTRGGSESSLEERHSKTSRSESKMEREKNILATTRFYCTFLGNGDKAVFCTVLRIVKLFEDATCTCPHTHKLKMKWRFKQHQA
turkey β1-AR V230^5.61A, sequence (P07700 whole entry V230A): as the sequence (P07700 whole entry W330A) above, with V230A, A330W counted along it
T1 sequence (P07700 whole entry): as the sequence (P07700 whole entry W330A) above, with A330W counted along it
turkey β1-AR W117^3.28A, sequence (P07700 whole entry W117A): as the sequence (P07700 whole entry W330A) above, with W117A, A330W counted along it

SMILES: CC(CCc1ccc(O)cc1)NCCc1ccc(O)c(O)c1 (centres unmarked) [Dobutamine, dobutamine]
- cAMP, time course (turkey β1-AR V230^5.61A; 2 min): 45 and 41 and 43
- cAMP, time course (turkey β1-AR V230^5.61A; 5 min): 126 and 122 and 128
- cAMP, time course (turkey β1-AR V230^5.61A; 10 min): 106 and 105 and 108
- cAMP, time course (turkey β1-AR V230^5.61A; 15 min): 61 and 56
- cAMP, time course (turkey β1-AR V230^5.61A; 20 min): 52 and 50 and 51
- cAMP, time course (turkey β1-AR V230^5.61A; 25 min): 46 and 44 and 47
- cAMP, time course (turkey β1-AR V230^5.61A; 30 min): 53 and 47 and 55
- EC50 (wild-type turkey β1-AR [1]): 1580 nM
- Emax (wild-type turkey β1-AR [1]; [4]): 100%
- EC50 (turkey β1-AR W117^3.28A): 7760 nM
- Emax (turkey β1-AR W117^3.28A; [4]): 16 ± 0.8%
- EC50 (turkey β1-AR W330^7.40A): 2950 nM
- Emax (turkey β1-AR W330^7.40A; [4]): 85 ± 0.8%
- cAMP level (turkey β1-AR W330^7.40A; log[ligand] (M) -3): 346 and 351 and 347
- cAMP level (turkey β1-AR W330^7.40A; log[ligand] (M) -4): 342 and 348 and 346
- cAMP level (turkey β1-AR W330^7.40A; log[ligand] (M) -5): 266 and 272 and 271
- cAMP level (turkey β1-AR W330^7.40A; log[ligand] (M) -6): 127 and 136 and 131
- cAMP level (turkey β1-AR W330^7.40A; log[ligand] (M) -7): 58 and 65 and 63
- cAMP level (turkey β1-AR W330^7.40A; log[ligand] (M) -8): 43 and 48
- cAMP level (turkey β1-AR W330^7.40A; log[ligand] (M) -9): 38 and 45 and 43
- cAMP, time course (wild-type turkey β1-AR [2]; 0 min): 34 and 32 and 33
- cAMP, time course (wild-type turkey β1-AR [2]; 0.5 min): 35 and 36 and 37
- cAMP, time course (wild-type turkey β1-AR [2]; 1 min): 57 and 46 and 50
- cAMP, time course (wild-type turkey β1-AR [2]; 2 min): 132 and 139 and 131
- cAMP, time course (wild-type turkey β1-AR [2]; 5 min): 335 and 327 and 343
- cAMP, time course (wild-type turkey β1-AR [2]; 10 min): 326 and 316 and 321
- cAMP, time course (wild-type turkey β1-AR [2]; 15 min): 273 and 271 and 269
- cAMP, time course (wild-type turkey β1-AR [2]; 20 min): 179 and 172 and 177
- cAMP, time course (wild-type turkey β1-AR [2]; 25 min): 125
- cAMP signal, time course (wild-type turkey β1-AR [2]; ligand 10^-3 M, time 0 min): 30 and 31 and 29
- cAMP signal, time course (wild-type turkey β1-AR [2]; ligand 10^-3 M, time 0.5 min): 33 and 38 and 31
- cAMP signal, time course (wild-type turkey β1-AR [2]; ligand 10^-3 M, time 1 min): 63 and 68 and 61
- cAMP signal, time course (wild-type turkey β1-AR [2]; ligand 10^-3 M, time 2 min): 163 and 166 and 154
- cAMP signal, time course (wild-type turkey β1-AR [2]; ligand 10^-4 M, time 0 min): 32 and 33 and 28
- cAMP signal, time course (wild-type turkey β1-AR [2]; ligand 10^-4 M, time 0.5 min): 39 and 41 and 34
- cAMP signal, time course (wild-type turkey β1-AR [2]; ligand 10^-4 M, time 1 min): 55 and 61
- cAMP signal, time course (wild-type turkey β1-AR [2]; ligand 10^-4 M, time 2 min): 143 and 151 and 141
- cAMP signal, time course (wild-type turkey β1-AR [2]; ligand 10^-5 M, time 0 min): 29 and 33 and 31
- cAMP signal, time course (wild-type turkey β1-AR [2]; ligand 10^-5 M, time 0.5 min): 34 and 38 and 33
- cAMP signal, time course (wild-type turkey β1-AR [2]; ligand 10^-5 M, time 1 min): 47 and 51 and 49
- cAMP signal, time course (wild-type turkey β1-AR [2]; ligand 10^-5 M, time 2 min): 133 and 145 and 130
- cAMP signal, time course (wild-type turkey β1-AR [2]; ligand 10^-6 M, time 0 min): 30 and 27
- cAMP signal, time course (wild-type turkey β1-AR [2]; ligand 10^-6 M, time 0.5 min): 39 and 37 and 38
- cAMP signal, time course (wild-type turkey β1-AR [2]; ligand 10^-6 M, time 1 min): 54 and 56 and 55
- cAMP signal, time course (wild-type turkey β1-AR [2]; ligand 10^-6 M, time 2 min): 124 and 122 and 120
- cAMP signal, time course (wild-type turkey β1-AR [2]; ligand 10^-7 M, time 0 min): 28 and 33 and 26
- cAMP signal, time course (wild-type turkey β1-AR [2]; ligand 10^-7 M, time 0.5 min): 34 and 36 and 32
- cAMP signal, time course (wild-type turkey β1-AR [2]; ligand 10^-7 M, time 1 min): 37 and 41 and 36
- cAMP signal, time course (wild-type turkey β1-AR [2]; ligand 10^-7 M, time 2 min): 50 and 56
- cAMP signal, time course (wild-type turkey β1-AR [2]; ligand 10^-8 M, time 0 min): 27 and 28 and 26
- cAMP signal, time course (wild-type turkey β1-AR [2]; ligand 10^-8 M, time 0.5 min): 31 and 33 and 29
- cAMP signal, time course (wild-type turkey β1-AR [2]; ligand 10^-8 M, time 1 min): 34 and 37
- cAMP signal, time course (wild-type turkey β1-AR [2]; ligand 10^-8 M, time 2 min): 43 and 44
- cAMP signal, time course (wild-type turkey β1-AR [2]; ligand 10^-9 M, time 0 min): 27 and 31 and 26
- cAMP signal, time course (wild-type turkey β1-AR [2]; ligand 10^-9 M, time 0.5 min): 31 and 36 and 32
- cAMP signal, time course (wild-type turkey β1-AR [2]; ligand 10^-9 M, time 1 min): 32 and 34 and 27
- cAMP signal, time course (wild-type turkey β1-AR [2]; ligand 10^-9 M, time 2 min): 37 and 40 and 35
- time-dependent cAMP response (phases) (wild-type turkey β1-AR [2]; near-saturating concentration (EC90), Fig. 6): a slower signal activation phase and an even slower signal termination phase
- Complex half-life [3]: 6.9 ± 0.6 min
